From patent publication US20130115257A1, “COMPOSITIONS AND METHODS FOR REMOVAL OR DESTRUCTION OF AMYLOID FIBRIL OR AMYLOID ADHESIN COMPRISING AGGREGATES” (KATHOLIEKE UNIVERSITEIT LEUVEN, priority 2010, published 2013)
Entries after “also recorded” stand apart in the source; their conditions may differ. Counter-ions that a name gives are not always drawn.

Legend:
[1] = system: Congo Red-amyloid fibril complex (insulin fibrils); assay: AFM of Congo Red-amyloid fibril complex after incubation with metal ions or colloids (fibril disintegration); settings: CR-stained insulin fibrils, 5 mmol/L silver ions, 15 minutes; for disintegration of the dye-amyloid fibers (AFM image): rinsed and dried
Experimental: (§1) Amyloid fibrils from the insulin hormone were obtained by dissolving insulin (3.5 mmol/L) in water adjusted to pH 2 with HCl and heated to 70° C. for 2 hours. Samples were diluted to a concentration of 7 μmol/L at room temperature and transferred to a piranha (4:1, H2SO4:H2O2) cleaned naturally oxidized silicon wafer. After 15 minutes of incubation the silicon surface was rinsed with water. The amyloid fibers on the silicon surface are then incubated with a 140 μmol/L solution of CR in water during 2 hours and successively rinsed with water.
The predominant particles are soluble dimers and higher order aggregates with the hydrophobic regions sequestered from the aqueous environment (D. Watson et al., Neurological Research 27, 869-881 (2005)). The soluble oligomeric amyloid-beta peptides are the principal constituent of amyloid deposits such as plaques and intraneuronal tangles.
The positively charged metal ions bind to the negatively charged sulfonate groups of the dye and interfere with the electrostatic bond between the negatively charged group of the CR molecule and the basic amino acid side chain of the fibril. This way the dye-peptide bond is disrupted at the monomer level, which causes the disintegration of the fibril. Our in vitro study points out that neurodegenerative disorders can be treated by negatively charged molecules, like CR which intercalate between the amyloid β-strands and induce a destabilization of the CR-fibril complex when metallic ions such as silver ions are introduced.

[2] = water; organic solvents such as ethanol; cited from earlier work
[3] = system: amyloid fibrils from insulin; assay: Atomic force microscopy of insulin amyloid fibrils incubated with Congo red; assay type: binding; settings: 140 μmol/L CR in water, 2 hours, fibrils on silicon surface
Experimental: as §1

insulin fibrils = assay: Fluorescence microscopy of dye-amyloid fibril complexes; assay type: binding; settings: insulin fibrils incubated with CR
Description: The dye-amyloid fibril complexes were also imaged with fluorescence microscopy, as CR is a fluorophore. […] Bright contrast in the fluorescence images corresponds to the presence of the fluorophore on the insulin fibrils, which themselves are not fluorescent.

Compound | disintegration of the dye-amyloid fibers (AFM image) [1] | solubility [2] | average cross section of the dye-amyloid fiber (AFM) [3] | presence of the fluorophore on the insulin fibrils (fluorescence images) (insulin fibrils) | heights of the particles left after disintegration (AFM) [1]
Nc1c(/N=N/c2ccc(-c3ccc(/N=N/c4cc(S(=O)(=O)O)c5ccccc5c4N)cc3)cc2)cc(S(=O)(=O)O)c2ccccc12 [Congo red, sodium salt of benzidinediazo-bis-1-naphthylamine-4-sulfonic acid] | total disintegration of the amyloid fibrils into peptide monomers | water soluble; also recorded: solubility is better in organic solvents such as ethanol | same dimension as in the absence of CR | bound or intercalated evenly in the insulin fibrils | –
silver ions | total disintegration | – | – | – | 1-2 nm
